pIC50: −log10 of the molar value. Several values for one entry are separate records, joined by “and”; a condition that tells them apart may be missing. Equal entries are not always repeated.
Tests used:
[1] = system: Liposome; assay: Mannose concentrations required for 50% turbidity reduction n the Surface of Liposomes; type: functional, subcellular
[2] = system: Liposome; assay: Mannose concentrations required for 50% turbidity reduction on the Surface of Liposomes; type: functional, subcellular

pIC50 [1]	pIC50 [2]	SMILES
1.70 and 1.52 and 1.30		CCCCCCCC/C=C\CCCCCCCCOCC(COCCOCCOCCOCCNC(=O)C(CCCCNC(=O)C(CCCCNC(=O)COCCOCCS[C@@H]1O[C@H](CO)[C@@H](O)[C@@H](O)[C@@H]1O)NC(=O)COCCOCCS[C@@H]1O[C@H](CO)[C@@H](O)[C@@H](O)[C@@H]1O)NC(=O)C(CCCCNC(=O)COCCOCCS[C@@H]1O[C@H](CO)[C@@H](O)[C@@H](O)[C@@H]1O)NC(=O)COCCOCCS[C@@H]1O[C@H](CO)[C@@H](O)[C@@H](O)[C@@H]1O)OCCCCCCCC/C=C\CCCCCCCC (some centres not stated)
	2.70 and 2.40 and 2.30	CCCCCCCC/C=C\CCCCCCCCOCC(COCCOCCOCCOCCNC(=O)CCS[C@H]1OC(CO)[C@@H](O)[C@@H](O)C1O)OCCCCCCCC/C=C\CCCCCCCC (some centres not stated)

Source: ChEMBL document CHEMBL1136135, “Synthesis of an amphiphilic tetraantennary mannosyl conjugate and incorporation into liposome carriers” (Bioorg Med Chem Lett, 2003)
